Experimental data published in patent publication US20260250337A1, “HYBRID ANTIMICROBIAL PEPTIDES” (UNIVERSIDADE FEDERAL DO ABC, priority 2023, published 2026).
“Also recorded” adds a separate entry of the source. No end group written: not given here.

Experiments:
[1] = Circular dichroism, helical fraction (Lifson-Roig); format: physicochemical; conditions: peptide 50 μmol L^−1; for Helical fraction (fH) PBS: PBS 10 mmol L^−1, pH 7.4; for Helical fraction (fH) POPC: POPC 10 mmol L^−1; for Helical fraction (fH) POPC:DOPE: POPC:DOPE 3:1, mol:mol; for Helical fraction (fH) POPC:DOPE / Helical fraction (fH) POPC:POPG: 10 mmol L^−1; for Helical fraction (fH) POPC:POPG: POPC:POPG 3:1, mol:mol; for Helical fraction (fH) SDS: SDS 20 mmol L^−1 in water; for Helical fraction (fH) TFE/Water: TFE in water (3:2, v:v)
Procedure: Method. Circular dichroism (CD) assays were performed with a Spectropolarimeter Jasco Mod. J-815 (JascoCorp). CD spectra were obtained in Far-UV (195-260 nm), and analyzed in the following solutions: water, 2,2,2-trifluoroethanol (TFE) in water (3:2, v:v), phosphate buffer saline (PBS, 10 mmol L^−1, pH 7.4), sodium dodecyl sulfate (SDS 20 mmol L^−1) in water, palmitoyloleoylphosphatidylcholine (POPC; 10 mmol L^−1), palmitoyloleoylphosphatidylcholine:dioleylphosphatidylethanolamine (POPC:DOPE; 3:1, mol:mol, 10 mmol L^−1) and palmitoyloleoylphosphatidylcholine:palmitoyloleoylphosphatidylglycerol (POPC:POPG; 3:1, mol:mol, 10 mmol L^−1) at a peptide concentration of 50 μmol L^−1. These experiments were performed as described in detail by Pedron et al.^62.

[2] = tested on: Plasmodium gallinaceum sporozoites; experiment: Antiplasmodial activity, fluorescence microscopy; format: cell-based; conditions: for P. gallinaceum (% sporozoites at 0.8 μmol L^−1): fluorescent (propidium iodide stained) sporozoites, 37° C., 1 h; for antiplasmodial activity: P. gallinaceum sporozoites, concentration range tested
Procedure: Method. The activity of the peptides against Plasmodium gallinaceum sporozoites was determined by fluorescence microscopy, as previously described by Silva et. al.^83. Briefly, 9,000 sporozoites were isolated from the glands of infected Aedes aegypti mosquitos and incubated with serially diluted peptides (ranging from 0.1 to 1.6 μmol L^−1) at 37° C. for 1 h. A PBS solution and the surfactant digitonin^84, 85 were used as negative and positive controls, respectively. Propidium iodide was used to stain dead cells. Assays were executed using fluorescence microscopy. Three biological repeats each with three different mosquito batches (n=9) were used.

C. albicans MDM8 = experiment: Liquid growth inhibition assay, MIC (antifungal); format: cell-based, Candida albicans; conditions: 37° C., 24 h
Procedure: (§1) Initially, the antimicrobial activity was determined by liquid growth inhibition assays, as previously described by Pedron et al.^62. Briefly, Peptone Broth and Potato Dextrose Broth (Invitrogen) were used for antibacterial and antifungal assays, respectively. Two-fold serial dilutions of peptides (0.09-50 μmol L^−1) and microorganisms (Serratia marcescens ATCC 4112, Enterobacter cloacae β-12, Micrococcus luteus A270, Bacillus megaterium ATCC 10778, Bacillus subtilis ATCC 6633, Candida albicans MDM8, and Candida tropicalis IOC 4560) were incubated at 37° C. for 18 h (for bacteria) or 24 h (for fungi), and microbial growth was assessed by absorbance measurements at 595 nm. Experiments were performed in three biological repeats.

[3] = Resistance to degradation in fetal bovine serum; format: in vitro ADME; conditions: fetal bovine serum 25% in water, 37° C.; for remaining at 0.5 h: 30 min, read-out: remaining peptide, 30 min; for remaining at 1 h: read-out: remaining peptide, 1 h; for remaining at 2 h: read-out: remaining peptide, 2 h; for remaining at 4 h: read-out: remaining peptide, 4 h
Procedure: The resistance to proteolytic degradation of the hybrid peptides was assessed by exposing them for 6 h to serum peptidases in a fetal bovine serum solution^68, 69 (FIG. 5a and Table S4). The peptide degradation kinetics were calculated by integrating the peak area of the peak in relation to the peptide at the beginning of the experiment (time=0) and comparing it to the integrated peak area relative to the peptides after exposure to the enzymes at time points: 0.5, 1, 2, 4, and 6 h (FIG. 5a and Table S4). […] However, AV was resistant to degradation against proteases, with almost 40% peptide content remaining after 4 h of exposure (FIG. 5a and Table S4). […] VP was almost entirely degraded after 30 min (22% of peptide remaining). […] D-amino acid substitutions have been used as alternatives to prevent the degradation of AMPs. For example, Qiu et. al. described a protonectin analog with a D-Lys residue in position 10 as an alternative to protonectin; this analog is not degraded and has higher antimicrobial activity against bacteria and fungi than the original peptide.
Methods. Stability assays were performed following the protocol described by Torres et al.^71. Briefly, a peptide solution was added to GIBCO fetal bovine serum diluted to 25% in water and kept at 37° C. The degradation kinetics were monitored by liquid chromatography and the percentage of peptide remaining was calculated by integrating the peptide peak area. The experiments were performed as three independent replicates, and aliquots were taken at 0, 0.5, 1, 2, 4, and 6 h.

bacterial strains = experiment: Antimicrobial activity over the panel of strains; format: cell-based; conditions: range of concentrations tested
Procedure: as §1
Method. The minimal inhibitory concentration (MIC) against the ESKAPE pathogens was determined using the broth microdilution method^81, 82 in Luria-Bertani (LB) medium. The MIC value was defined as the lowest concentration of peptide at which no microbial growth was observed. A. baumannii ATCC19606, E. coli ATCC11775, E. coli AIC221, E. coli AIC222, K. pneumoniae ATCC13883, S. aureus ATCC12600 P. aeruginosa PAO1, and P. aeruginosa PA14 were incubated on agar plates, and after 24 h, three isolated colonies were inoculated to 5 mL of Luria-Bertani (LB) broth and maintained at 37° C. overnight with shaking. Peptides were then added to 96-well polystyrene microtiter plates at concentrations ranging from 0 to 128 μmol L^−1, and 5×10^5 CFU mL^−1 of each bacterium was inoculated in each well. The plates were incubated at 37° C. for 24 h. Bacterial growth was measured using a microplate reader at 610 nm. Three independent replicates were performed.

C. tropicalis IOC 4560 = experiment: Liquid growth inhibition assay, MIC (antifungal); format: cell-based, Candida tropicalis; conditions: 37° C., 24 h
Procedure: as §1

human erythrocytes = experiment: Hemolytic activity assay; format: cell-based; conditions: for Hemolytic activity, concentration of peptide needed to kill 10% of red blood cells / MHC: human erythrocytes, 1 h; for MHC: room temperature, concentration with approximately 0% of hemolytic activity
Procedure: Method. Assays against freshly collected human erythrocytes were performed following protocols described by Pedron et al. 62. Briefly, peptide aliquots at concentrations ranging from 0.1 to 100 μmol L−1 were incubated with a suspension of erythrocytes at room temperature for 1 h. The samples were then centrifuged, and the absorbance of the supernatant was measured at 405 nm. The MHC (maximal non-hemolytic concentration) was determined as the maximal concentration at which 100% of the erythrocytes were viable. The surfactant SDS and PBS buffer were used as positive88, 89 and negative controls, respectively. Sodium heparin was used as an anticoagulant when collecting human blood. Three biological repeats were performed.

[4] = tested on: S. epidermidis ATCC 12228; experiment: Liquid growth inhibition assay, MIC; format: cell-based; conditions: 37° C., 18 h
E. cloacae β-12 = experiment: Liquid growth inhibition assay, MIC; format: cell-based, Enterobacter cloacae; conditions: 37° C., 18 h
Procedure: as §1

S. marcescens ATCC 4112 = experiment: Liquid growth inhibition assay, MIC; format: cell-based, Serratia marcescens; conditions: 37° C., 18 h
Procedure: as §1

M. luteus A270 = experiment: Liquid growth inhibition assay, MIC; format: cell-based, Micrococcus luteus; conditions: 37° C., 18 h
Procedure: as §1

B. megaterium ATCC 10778 = experiment: Liquid growth inhibition assay, MIC; format: cell-based, Bacillus megaterium; conditions: 37° C., 18 h
Procedure: as §1

[5] = tested on: MCF-7 human breast cancer cells; experiment: Anticancer activity, MTT assay; format: cell-based; conditions: incubation time not stated
Procedure: The anticancer activity assays were performed using MCF-10A human breast epithelial cells and MCF-7 mammary cancer cells as previously described by Pedron et al. 86. Briefly, the day before treatment, the cells were incubated at 37° C. and 5% CO2 for 24 h. The cells were treated with peptides ranging from 12.5 to 100 μmol L^−1 (MCF10-A cells) and 0.8 to 100 μmol L^−1 (MCF-7 cells) for 4 h and 24 h at 37° C., and cell viability was measured using 3-(4,5-Dimethylthiazol-2-yl)-2,5-diphenyltetrazolium bromide (MTT) assays 87. Three independent replicates were performed in each case.

[6] = at 100 μmol L^−1; cited from earlier work
[7] = bovine, fetal bovine serum, 25% in water
[8] = bovine, fetal bovine serum, 25% in water, 4 h

Row | Substance | Helical fraction (fH) PBS [1] | Helical fraction (fH) POPC [1] | Helical fraction (fH) POPC:DOPE [1] | Helical fraction (fH) POPC:POPG [1] | Helical fraction (fH) SDS [1] | Helical fraction (fH) TFE/Water [1] | Helical fraction (fH) Water [1] | P. gallinaceum (% sporozoites at 0.8 μmol L^−1) [2] [%] | antiplasmodial activity [2] | MIC C. albicans MDM8 (C. albicans MDM8) [µM] | remaining at 0.5 h [3, 7] [%] | remaining at 1 h [3, 7] [%] | remaining at 2 h [3, 7] [%] | MIC C. tropicalis IOC 4560 (C. tropicalis IOC 4560) [µM] | Hemolytic activity, concentration of peptide needed to kill 10% of red blood cells (human erythrocytes) [µmol/L] | MHC (human erythrocytes) [µmol/L] | MIC S. epidermidis ATCC 12228 [4] [µM] | MIC E. cloacae β-12 (E. cloacae β-12) [µM] | MIC S. marcescens ATCC 4112 (S. marcescens ATCC 4112) [µM] | MIC M. luteus A270 (M. luteus A270) [µM] | other results
1 | GLGALLNVIKSGL-NH2 [AV, Gly-Leu-Gly-Ala-Leu-Len-Asn-Val-Ile-Lys-Ser-Gly-Leu] | 0.05 | 0.03 | 0.08 | 0.04 | 0.31 | 0.42 | 0.08 | 90 | exhibited antiplasmodial activity | 50 | ~40 | ~40 | ~40 | 50 | 100 | >100 | >50 | >50 | 50 | 6.3 | remaining at 4 h [3, 8]: ~40%; remaining peptide, 4 h ([3]; 4 h): ~40%; antimicrobial activity (bacterial strains): lower antimicrobial activities than the corresponding template peptides; hemolytic activity (human erythrocytes; 0.1 to 100 μmol L^−1): minimal hemolytic activity; MIC B. megaterium ATCC 10778 (B. megaterium ATCC 10778): >50 µM
2 | SLGALINVLKSGG-NH2 [DV, Ser-Leu-Gly-Ala-Leu-Ile-Asn-Val-Leu-Lys-Ser-Gly-Gly] | 0.12 | 0.08 | 0.11 | 0.41 | 0.62 | 0.90 | 0.11 | 31 | did not exhibit significant antiplasmodial activity; also recorded: did not present antiplasmodial activity | >50 | ~50 | ~50 | ~50 | >50 | 0.1 | 0.1 | >50 | >50 | >50 | >50 | remaining at 4 h [3, 8]: ~50%; remaining at 6 h ([3]; bovine, fetal bovine serum, 25% in water, 6 h, read-out: remaining peptide, 6 h): ~50%; antimicrobial activity (bacterial strains): No antimicrobial activities were observed; also recorded: did not exhibit antimicrobial activity; MIC B. megaterium ATCC 10778 (B. megaterium ATCC 10778): >50 µM
3 | SLLSLIRKLIT-NH2 [Decoralin, Ser-Leu-Leu-Ser-Len-Ile-Arg-Lys-Leu-Ile-Thr, reference compound] | 0.06 | 0.23 | 0.19 | 0.40 | 0.22 | 0.29 | 0.05 | 0 | no activity; also recorded: did not present antiplasmodial activity | 0.8 | ~70 | < 30 | < 30 | 1.6 | 1.6 | 1.6 | 6.3 | 6.3 | 3.1 | 0.8 | concentration with activity against MCF-7 human breast cancer cells [5]: 50 µmol/L; hemolytic activity of decoralin [6]: low hemolytic activity; MIC B. megaterium ATCC 10778 (B. megaterium ATCC 10778): 1.6 µM
